Measurements taken from PubChem BioAssay (NCI).
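Protocol summary: plate cells (96-well), add compound at 5 concentrations, incubate 48 h, interpolate endpoints linearly. The concentration for full growth arrest is given as TGI.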

Columns and labels:
Assay in all cases: NCI tumour cell line growth inhibition, 48 h
HCT-116 colon = test system: HCT-116 colon
MCF7 breast = test system: MCF7 breast
MALME-3M melanoma = test system: MALME-3M melanoma
COLO 205 colon = test system: COLO 205 colon
SF-295 CNS = test system: SF-295 CNS
OVCAR-4 ovarian = test system: OVCAR-4 ovarian
EKVX NSCLC = test system: EKVX NSCLC
ACHN renal = test system: ACHN renal
UACC-62 melanoma = test system: UACC-62 melanoma
MDA-MB-231 breast = test system: MDA-MB-231 breast
SNB-19 CNS = test system: SNB-19 CNS
HOP-92 NSCLC = test system: HOP-92 NSCLC
SN12C renal = test system: SN12C renal
UACC-257 melanoma = test system: UACC-257 melanoma
SNB-75 CNS = test system: SNB-75 CNS
DU-145 prostate = test system: DU-145 prostate
NCI-H226 lung = test system: NCI-H226 lung
KM12 colon = test system: KM12 colon
NCI-H522 lung = test system: NCI-H522 lung
NCI-H23 lung = test system: NCI-H23 lung
NCI/ADR-RES ovarian = test system: NCI/ADR-RES ovarian
A549 NSCLC = test system: A549 NSCLC
HS 578T breast = test system: HS 578T breast
U251 CNS = test system: U251 CNS
CCRF-CEM leukemia = test system: CCRF-CEM leukemia
786-0 renal = test system: 786-0 renal
LOX IMVI melanoma = test system: LOX IMVI melanoma
SF-268 CNS = test system: SF-268 CNS
MDA-MB-435 = test system: MDA-MB-435
SK-MEL-5 melanoma = test system: SK-MEL-5 melanoma
BT-549 breast = test system: BT-549 breast
HT29 colon = test system: HT29 colon
PC-3 prostate = test system: PC-3 prostate
K-562 leukemia = test system: K-562 leukemia
SK-OV-3 ovarian = test system: SK-OV-3 ovarian
MOLT-4 leukemia = test system: MOLT-4 leukemia
SK-MEL-2 melanoma = test system: SK-MEL-2 melanoma
HOP-62 NSCLC = test system: HOP-62 NSCLC
A498 renal = test system: A498 renal
CAKI-1 renal = test system: CAKI-1 renal
MDA-N = test system: MDA-N
M14 melanoma = test system: M14 melanoma
SK-MEL-28 melanoma = test system: SK-MEL-28 melanoma
OVCAR-8 ovarian = test system: OVCAR-8 ovarian
OVCAR-5 ovarian = test system: OVCAR-5 ovarian
HCC-2998 colon = test system: HCC-2998 colon
UO-31 renal = test system: UO-31 renal
TK-10 renal = test system: TK-10 renal
HCT-15 colon = test system: HCT-15 colon
T-47D breast = test system: T-47D breast
SR leukemia = test system: SR leukemia
OVCAR-3 ovarian = test system: OVCAR-3 ovarian
HL-60(TB) leukemia = test system: HL-60(TB) leukemia
SW-620 colon = test system: SW-620 colon
RPMI-8226 leukemia = test system: RPMI-8226 leukemia
SF-539 CNS = test system: SF-539 CNS
IGROV1 ovarian = test system: IGROV1 ovarian
NCI-H460 lung = test system: NCI-H460 lung

Measured: TGI

O1C2C1C1OC1C1OC1C1OC21 (configuration not stated)
not listed: OVCAR-3 ovarian | HL-60(TB) leukemia | SW-620 colon | RPMI-8226 leukemia | SF-539 CNS | IGROV1 ovarian | NCI-H460 lung
> 100 µM: all other assays above

O=C(O)[C@@H]1CCC(=O)N1C(c1ccc2c(c1)OCO2)c1ccc2c(c1)OCO2
not listed: CCRF-CEM leukemia | SK-OV-3 ovarian
> 100 µM: all other assays above
